# Measured values published in patent US8802686B2, “Sulfone-substituted anilinopyrimidine derivatives as CDK inhibitors, the production thereof, and use as a medicine” (Bayer Intellectual Property GmbH, priority 2008, dated 2014).
# Read-outs that look alike come from different tables or passages of the source.
# Columns and labels:
# CDK2/CycE = CDK2/CycE (Homo sapiens (Human), UniProt P24941); experiment: CDK2/CycE kinase assay (Assay 2); format: biochemical; details: read-out: CDK2/CycE (Assay 2) Concentration of the half-maximal inhibition of the enzyme activity, IC50
# Description: Recombinant CDK2 and CycE-GST fusion proteins, purified from baculovirus-infected insect cells (Sf9), were purchased from ProQinase GmbH, Freiburg. Histone IIIS, which was used as kinase substrate, was purchased from Sigma.
# CDK2/CycE (50 mg/measuring point) was incubated for 10 min at 22° C. in the presence of different concentrations of test substances (0 μM, and within the range 0.001-10 μM) in assay buffer [50 mM Tris/HCl pH 8.0; 10 mM MgCl2; 0.1 mM Na ortho-vanadate; 1.0 mM dithiothreitol; 0.5 μM adenosine trisphosphate (ATP); 10 μg/measuring point histone IIIS; 0.2 μCi/measuring point ^33P-gamma ATP; 0.05% NP40; 1.25% dimethyl sulphoxide]. The reaction was stopped by adding EDTA solution (250 mM; pH 8.0; 15 μl/measuring point).
# (§2) From each reaction mixture, 15 μl were applied to P30 filter strips (Wallac), and unincorporated ^33P-ATP was removed by washing the filter strips three times, for 10 min in each case, in 0.5% phosphoric acid. After drying the filter strips for 1 hour at 70° C., the filter strips were covered with scintillator strips (MeltiLex™ A, Wallac) and stoved for 1 hour at 90° C. The amount of incorporated ^33P (substrate phosphorylation) was determined by scintillation measurement in a gamma-radiation measuring instrument (Wallac). […] The IC50 values were determined by means of a 4-parameter fit using the company's own software.
# [1] = system: Caco-2, human colon carcinoma cells; experiment: Proliferation assay (Assay 5), Caco-2; format: cell-based; details: read-out: Concentration of the half-maximal inhibition of the cell proliferation, IC50
# From the text: (§1) Cultivated human tumour cells (MCF7, hormone-independent human breast carcinoma cells, acquired from ATCC HTB22; NCI-H460, human non-small-cell lung carcinoma cells, ATCC HTB-177; DU 145, hormone-independent human prostrate carcinoma cells, ATCC HTB-81; HeLa-MaTu, human cervix carcinoma cells, EPO-GmbH, Berlin; HeLa-MaTu-MDR, multiple drug-resistant human cervix carcinoma cells, EPO-GmbH, Berlin; Caco-2, human colon carcinoma cells, ATCC HTB-37; B16F10, murine melanoma cell, ATCC CRL-6475) were plated out at a density of ca. 1000-5000 cells/measuring point, depending on the growth rate of the particular cells, in a 96-well multititre plate in 200 μl of the corresponding growth medium. After 24 hours, the cells of one plate (zero-point plate) were stained with crystal violet (see below), whereas the medium of the other plates was replaced with fresh culture medium (200 μl), to which the test substances had been added at different concentrations (0 μM, and in the range 0.003-3 μM; the final concentration of the solvent dimethyl sulphoxide was 0.5%). The cells were incubated for 4 days in the presence of the test substances. Cell proliferation was determined by staining the cells with crystal violet: the cells were fixed by adding 20 μl/measuring point of an 11% glutaraldehyde solution for 15 min at room temperature. After washing the fixed cells with water three times, the plates were dried at room temperature. The cells were stained by adding 100 μl/measuring point of a 0.1% crystal violet solution (pH adjusted to pH 3 by adding acetic acid). After washing the stained cells with water three times, the plates were dried at room temperature. The dye was dissolved by adding 100 μl/measuring point of a 10% acetic acid solution. The extinction was determined photometrically at a wavelength of 595 nm. […] The IC50 values were determined by means of a 4-parameter fit using the company's own software.
# [2] = system: HeLa-MaTu-ADR (HeLa-MaTu-MDR, multiple drug-resistant human cervix carcinoma cells); experiment: Proliferation assay (Assay 5), HeLa-MaTu-ADR; format: cell-based; details: 96 h, read-out: Concentration of the half-maximal inhibition of the cell proliferation, IC50
# From the text: as §1
# [3] = system: B16F10, murine melanoma cell; experiment: Proliferation assay (Assay 5), B16F10; format: cell-based; details: Mus musculus, B16-F10, 96 h, read-out: Concentration of the half-maximal inhibition of the cell proliferation, IC50
# From the text: as §1
# [4] = biological target: VEGF receptor tyrosine kinase-2 (VEGF-R2) (Homo sapiens (Human), UniProt P35968); experiment: VEGF receptor-2 kinase assay (Assay 4); format: biochemical; details: read-out: VEGF-R2 (Assay 4) Concentration of the half-maximal inhibition of the enzyme activity, IC50
# VEGF receptor tyrosine kinase-2 (VEGF-R2), sequence (P35968 20-1356, species assumed): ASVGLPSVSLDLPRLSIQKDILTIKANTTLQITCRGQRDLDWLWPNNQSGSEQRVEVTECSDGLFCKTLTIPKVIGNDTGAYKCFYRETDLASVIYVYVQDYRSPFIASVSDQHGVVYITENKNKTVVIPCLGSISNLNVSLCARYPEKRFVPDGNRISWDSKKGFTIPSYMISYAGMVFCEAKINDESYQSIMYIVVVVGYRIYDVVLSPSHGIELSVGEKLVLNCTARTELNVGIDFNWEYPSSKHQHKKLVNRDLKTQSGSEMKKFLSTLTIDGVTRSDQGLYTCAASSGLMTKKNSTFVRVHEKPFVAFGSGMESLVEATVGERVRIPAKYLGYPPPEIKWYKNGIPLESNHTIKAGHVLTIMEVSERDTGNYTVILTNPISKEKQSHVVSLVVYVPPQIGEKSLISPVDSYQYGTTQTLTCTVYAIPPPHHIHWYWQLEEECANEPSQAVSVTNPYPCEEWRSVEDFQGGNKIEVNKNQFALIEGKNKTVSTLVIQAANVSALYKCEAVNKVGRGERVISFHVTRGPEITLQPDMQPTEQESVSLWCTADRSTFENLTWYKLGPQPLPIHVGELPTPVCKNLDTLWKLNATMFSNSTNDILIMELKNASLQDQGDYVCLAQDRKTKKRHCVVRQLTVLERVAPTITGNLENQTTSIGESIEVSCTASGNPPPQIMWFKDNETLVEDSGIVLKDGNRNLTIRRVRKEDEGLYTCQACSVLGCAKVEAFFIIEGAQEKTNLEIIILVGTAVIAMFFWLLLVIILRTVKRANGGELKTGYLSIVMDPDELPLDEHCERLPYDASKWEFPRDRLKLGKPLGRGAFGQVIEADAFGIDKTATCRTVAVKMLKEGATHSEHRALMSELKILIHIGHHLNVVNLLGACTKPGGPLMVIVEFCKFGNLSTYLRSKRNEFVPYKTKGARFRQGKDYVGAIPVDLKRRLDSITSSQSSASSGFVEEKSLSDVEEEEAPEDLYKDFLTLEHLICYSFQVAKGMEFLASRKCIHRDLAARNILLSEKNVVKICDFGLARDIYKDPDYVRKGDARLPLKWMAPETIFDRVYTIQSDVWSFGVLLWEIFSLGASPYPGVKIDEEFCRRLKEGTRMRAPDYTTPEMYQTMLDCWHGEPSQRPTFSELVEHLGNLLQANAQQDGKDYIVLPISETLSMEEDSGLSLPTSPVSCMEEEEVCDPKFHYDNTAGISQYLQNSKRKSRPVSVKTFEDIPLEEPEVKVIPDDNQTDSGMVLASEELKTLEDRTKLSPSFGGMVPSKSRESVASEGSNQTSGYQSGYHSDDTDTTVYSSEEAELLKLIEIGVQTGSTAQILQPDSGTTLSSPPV
# Description: Recombinant VEGF receptor tyrosine kinase-2 was purified as GST fusion protein from baculovirus-infected insect cells (Sf9). Poly-(Glu4Tyr), which was used as kinase substrate, was purchased from Sigma.
# VEGF receptor tyrosine kinase (90 ng/measuring point) was incubated for 10 min at 22° C. in the presence of different concentrations of test substances (0 μM, and within the range 0.001-10 μM) in 30 μl of assay buffer [40 mM Tris/HCl pH 5.5; 10 mM MgCl2; 1 mM MnCl2; 3 μM Na ortho-vanadate; 1.0 mM dithiothreitol; 8 μM adenosine trisphosphate (ATP); 0.96 μg/measuring point poly-(Glu4Tyr); 0.2 μCi/measuring point ^33P-gamma ATP; 1.4% dimethyl sulphoxide]. The reaction was stopped by adding EDTA solution (250 mM; pH 8.0; 15 μl/measuring point).
# as §2
# [5] = system: MCF7, hormone-independent human breast carcinoma cells; experiment: Proliferation assay (Assay 5), MCF7; format: cell-based; details: read-out: Concentration of the half-maximal inhibition of the cell proliferation, IC50
# From the text: as §1
# CDK4/CycD1 = CDK4/CycD1 (Homo sapiens (Human), UniProt P11802); experiment: CDK4/CycD kinase assay (Assay 3); format: biochemical; details: read-out: CDK4/CycD (Assay 3) Concentration of the half-maximal inhibition of the enzyme activity, IC50
# CDK4/CycD1, sequence (P11802 whole entry, the tested form may be a part): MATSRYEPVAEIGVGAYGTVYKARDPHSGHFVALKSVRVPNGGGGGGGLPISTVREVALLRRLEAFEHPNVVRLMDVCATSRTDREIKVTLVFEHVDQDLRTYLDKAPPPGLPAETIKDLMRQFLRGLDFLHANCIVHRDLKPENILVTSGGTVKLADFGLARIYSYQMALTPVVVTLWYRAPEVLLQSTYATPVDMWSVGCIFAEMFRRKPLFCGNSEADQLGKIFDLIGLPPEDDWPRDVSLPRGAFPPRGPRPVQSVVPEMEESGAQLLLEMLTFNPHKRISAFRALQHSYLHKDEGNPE
# CDK4/CycD1, sequence (P24385 whole entry partner, the tested form may be a part): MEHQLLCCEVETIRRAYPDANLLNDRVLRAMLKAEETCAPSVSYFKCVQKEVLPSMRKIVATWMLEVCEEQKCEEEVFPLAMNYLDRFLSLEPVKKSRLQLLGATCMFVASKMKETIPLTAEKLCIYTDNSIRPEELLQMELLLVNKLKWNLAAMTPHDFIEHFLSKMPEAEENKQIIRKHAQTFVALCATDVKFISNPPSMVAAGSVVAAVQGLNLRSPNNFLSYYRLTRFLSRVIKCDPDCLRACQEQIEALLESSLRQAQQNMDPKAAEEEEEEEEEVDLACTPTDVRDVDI
# Description: Recombinant CDK4 and CycD1-GST fusion proteins, purified from baculovirus-infected insect cells (Sf9), were purchased from ProQinase GmbH, Freiburg. CDK4/CycD1 (250 ng/measuring point) was incubated for 3 hours at 22° C. in the presence of different concentrations of test substances (0 μM, and within the range 0.001-10 μM) in 31 μl of assay buffer [50 mM Hepes pH 7.0; 2.5 mM MnCl; 0.05 mM Na ortho-vanadate; 1.0 mM dithiothreitol; 0.25 μM adenosine trisphosphate (ATP); 0.5 μM biotinylated myelin basic protein (bio-MPB, GE Healthcare); 0.05 μCi/measuring point ^33P-gamma ATP; 0.005% NP40; 0.025% bovine serum albumin; 3% dimethyl sulphoxide]. The reaction was stopped by adding 50 μl of stop-mix [100 μM ATP; 10 mM EDTA pH 8.0; 0.2% Triton X100; 0.125 mg of streptavidin-SPA Beads (GE Healthcare)]. After incubation for 10 min at room temperature, the SPA beads were pelleted by centrifugation (10 min; 1500 g). The amount of incorporated ^33P (substrate phosphorylation) was determined by scintillation measurement in a beta-radiation measuring instrument (Microbeta, Perkin Elmer).
# CDK1/CycB = CDK1/CycB (Homo sapiens (Human), UniProt P06493); experiment: CDK1/CycB kinase assay (Assay 1); format: biochemical; details: read-out: CDK1/CycB (Assay 1) Concentration of the half-maximal inhibition of the enzyme activity, IC50
# CDK1/CycB, sequence (P06493 whole entry): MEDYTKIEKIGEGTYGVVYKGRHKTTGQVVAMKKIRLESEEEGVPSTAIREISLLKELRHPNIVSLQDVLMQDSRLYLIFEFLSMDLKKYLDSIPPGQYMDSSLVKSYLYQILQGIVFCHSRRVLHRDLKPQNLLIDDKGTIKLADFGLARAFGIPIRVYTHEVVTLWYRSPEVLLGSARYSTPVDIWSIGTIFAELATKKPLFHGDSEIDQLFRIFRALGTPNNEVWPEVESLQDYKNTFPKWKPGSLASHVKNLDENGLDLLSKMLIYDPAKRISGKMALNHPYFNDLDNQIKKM
# CDK1/CycB, sequence (P14635 whole entry partner): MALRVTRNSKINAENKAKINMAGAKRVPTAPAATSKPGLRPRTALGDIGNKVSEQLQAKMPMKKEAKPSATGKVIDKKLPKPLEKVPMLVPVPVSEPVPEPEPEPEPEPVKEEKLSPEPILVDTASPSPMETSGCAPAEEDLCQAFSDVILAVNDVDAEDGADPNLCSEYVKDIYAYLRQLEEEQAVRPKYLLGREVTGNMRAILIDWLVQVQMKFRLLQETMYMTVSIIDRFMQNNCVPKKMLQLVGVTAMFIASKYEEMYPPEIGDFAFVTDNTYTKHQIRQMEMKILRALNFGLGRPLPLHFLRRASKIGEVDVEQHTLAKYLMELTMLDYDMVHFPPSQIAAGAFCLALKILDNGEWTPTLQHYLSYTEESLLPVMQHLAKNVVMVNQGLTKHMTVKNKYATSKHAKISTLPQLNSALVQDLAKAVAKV
# Description: CDK1/CycB (200 ng/measuring point) was incubated for 10 min at 22° C. in the presence of different concentrations of test substances (0 and within the range 0.001-10 μM) in assay buffer [50 mM Tris/HCl pH 8.0; 10 mM MgCl2; 0.1 mM Na ortho-vanadate; 1.0 mM dithiothreitol; 0.5 μM adenosine trisphosphate (ATP); 10 μg/measuring point histone IIIS; 0.2 μCi/measuring point ^33P-gamma ATP; 0.05% NP40; 1.25% dimethyl sulphoxide]. The reaction was stopped by adding EDTA solution (250 mM; pH 8.0; 15 μl/measuring point).
# From each reaction mixture, 15 μl were applied to P30 filter strips (Wallac), and unincorporated ^33P-ATP was removed by washing the filter strips three times, for 10 min in each case, in 0.5% phosphoric acid. After drying the filter strips for 1 hour at 70°, the filter strips were covered with scintillator strips (MeltiLex™ A, Wallac) and stoved for 1 hour at 90° C. The amount of incorporated ^33P (substrate phosphorylation) was determined by scintillation measurement in a gamma-radiation measuring instrument (Wallac). […] The IC50 values were determined by means of a 4-parameter fit using the company's own software.
# [6] = Permeability assay (Assay 6), Caco-2 monolayer; format: in vitro ADME; details: human; for efflux ratio at 90 min: Caco-2, read-out: ratio (b-a)/(a-b); for Papp A→B at 90 min / Papp B→A at 90 min: Caco-2, 90 min, 37° C.; for Papp A→B at 90 min: read-out: Permeation coefficient, Papp apical-basolateral (a-b); for Papp B→A at 90 min: read-out: Permeation coefficient, Papp basolateral-apical (b-a)
# Description: The Caco-2 monolayer is a barrier between 2 compartments. The cells here behave similarly to the small intestine cells. Active ingredients can be transported either paracellularly or transcellularly. Here, the transport takes place in most cases from apical (luminal) to basolateral (serosal). In the case of p-glycoprotein substrates, back-transport from basolateral to apical is also usually observed.
# Experimental procedure: The permeability test is carried out both from apical to basolateral and also from basolateral to apical. For this, two filters are used per substance; incubation takes place over 90 min at 37° C. in a water bath. […] As reference substances, (i) PEG 4000 are used as hydrophilic marker. On account of its high molecular weight, it is unable to permeate into the cell membrane or into the pores of the tight junctions. PEG 4000 is therefore a marker of the intactness of the cell monolayer and the narrowness of the tight junctions. PEG 4000 is not absorbed in humans. (ii) Clonidine is known as completely absorbed substances in people (100%). They serve as markers for very highly permeable substances with Papp values above 100 nm/s. (iii) Digoxin is a known Pgp substrate. […] In the reverse experiment (basolateral to apical), the Papp values should be higher by a factor of about 10 as a result of the active directional transport into the apical compartment.
# The permeation coefficient Papp is used to estimate the absorption in people according to the following scheme: […]
# [7] = system: NCI-H460, human non-small-cell lung carcinoma cells; experiment: Proliferation assay (Assay 5), NCI-H460; format: cell-based; details: read-out: Concentration of the half-maximal inhibition of the cell proliferation, IC50
# From the text: as §1
# [8] = system: DU 145, hormone-independent human prostrate carcinoma cells; experiment: Proliferation assay (Assay 5), DU145; format: cell-based; details: DU-145, 96 h, read-out: Concentration of the half-maximal inhibition of the cell proliferation, IC50
# From the text: as §1
# [9] = reference substance; cited from earlier work
# Caco-2 monolayer = details: reference substance, cited from earlier work
# [10] = system: HeLa-MaTu, human cervix carcinoma cells; experiment: Proliferation assay (Assay 5), HeLa-MaTu; format: cell-based; details: 96 h, read-out: Concentration of the half-maximal inhibition of the cell proliferation, IC50
# From the text: as §1
Structure (SMILES),IC50 (CDK2/CycE) [nM],"IC50 ([1]; 96 h, Caco-2, 4 days) [nM]","IC50 ([2]; HeLa-MaTu-ADR, 4 days) [nM]","IC50 ([3]; B16F10, 4 days) [nM]","IC50 ([5]; 96 h, MCF7, 4 days) [nM]",IC50 (CDK4/CycD1) [nM],IC50 (CDK1/CycB) [nM],efflux ratio at 90 min [6],Papp A→B at 90 min [6] [×10⁻⁶ cm/s],Papp B→A at 90 min [6] [×10⁻⁶ cm/s],"IC50 ([7]; 96 h, NCI-H460, 4 days) [nM]","IC50 ([8]; DU145, 4 days) [nM]","IC50 ([10]; HeLa-MaTu, 4 days) [nM]",also measured
"C[C@@H](O)[C@@H](C)Nc1nc(Nc2ccc(S(C)(=O)=O)cc2)ncc1C(F)(F)F [C2, (2R,3R)-3-[2-(4-Methanesulphonylphenylamino)-5-trifluoromethylpyrimidin-4-ylamino]butan-2-ol, reference compound]",4,76,32,89,43,35,4,1,18,17.8,34,75,–,IC50 [4]: 92 nM
Clc1cccc(Cl)c1N=C1NCCN1 [Clonidine],–,–,–,–,–,–,–,–,–,–,–,–,–,absorbed in people [9]: 100%; Papp values of reference marker (Caco-2 monolayer): above 100 nm/s
C[C@H]1O[C@@H](O[C@H]2[C@@H](O)C[C@H](O[C@H]3[C@@H](O)C[C@H](O[C@H]4CC[C@@]5(C)[C@H](CC[C@@H]6[C@@H]5C[C@@H](O)[C@]5(C)[C@@H](C7=CC(=O)OC7)CC[C@]65O)C4)O[C@@H]3C)O[C@@H]2C)C[C@H](O)[C@@H]1O [Digoxin],–,–,–,–,–,–,–,–,–,–,–,–,–,permeability from apical to basolateral (Caco-2 monolayer; Pgp substrate): low permeability
"C[C@@H](O)[C@@H](C)Oc1nc(Nc2ccc(S(C)(=O)=O)cc2)ncc1C(F)(F)F [Example 2, (2R,3R)-3-[2-(4-Methanesulphonylphenylamino)-5-trifluoromethylpyrimidin-4-yloxy]butan-2-ol]",–,–,–,–,–,24,–,–,19.6,19.4,–,–,–,"IC50 ([1]; Caco-2, 96 h): 66 nM; IC50 [2]: 14 nM; IC50 [3]: 70 nM; IC50 ([5]; MCF7, 96 h): 35 nM; IC50 ([7]; NCI-H460, 96 h): 38 nM; IC50 [10]: 14 nM; IC50 [8]: 34 nM"

# More lines, main results first:
IC50 (CDK2/CycE) [nM],"IC50 ([1]; 96 h, Caco-2, 4 days) [nM]","IC50 ([2]; HeLa-MaTu-ADR, 4 days) [nM]","IC50 ([3]; B16F10, 4 days) [nM]","IC50 ([5]; 96 h, MCF7, 4 days) [nM]",IC50 (CDK4/CycD1) [nM],IC50 (CDK1/CycB) [nM],efflux ratio at 90 min [6],Papp A→B at 90 min [6] [×10⁻⁶ cm/s],Papp B→A at 90 min [6] [×10⁻⁶ cm/s],"IC50 ([7]; 96 h, NCI-H460, 4 days) [nM]","IC50 ([8]; DU145, 4 days) [nM]","IC50 ([10]; HeLa-MaTu, 4 days) [nM]",Structure (SMILES),also measured
16,45,9,49,23,20,16,0.9,16.5,14.7,41,17,11,"C[C@@H](O)[C@@H](C)Oc1nc(Nc2ccc(S(=O)(=O)C3CC3)cc2)ncc1C(F)(F)F [Example 1, (2R,3R)-3-[2-(4-Cyclopropanesulphonylphenylamino)-5-trifluoromethylpyrimidin-4-yloxy]butan-2-ol]",–
12,180,39,270,160,78,32,–,–,–,140,74,35,"C[C@@H](Oc1nc(Nc2ccc(S(C)(=O)=O)cc2)ncc1C(F)(F)F)C(C)(C)O [Example 3, (R)-3-[2-(4-Methanesulphonylphenylamino)-5-trifluoromethylpyrimidin-4-yloxy]-2-methylbutan-2-ol]",–
